From US20100197714A1, “SPIRO-PYRANO-PYRAZOLE DERIVATIVES” (priority 2007, published 2010)

How the values were obtained:
σ2-receptor = target: T1, σ2-receptor (Rattus norvegicus, UniProt Q5U3Y7); test: Sigma 2 (Version B) radioligand binding, [3H]-ditolylguanidine, rat liver preparation, σ1 sites masked with (+)-pentazocine; details: for Ki: [3H]-ditolylguanidine 3 nM
T1 construct: the σ2-Receptorpreparation was prepared from rat liver; from tissue; host or cells: rat liver membrane homogenate
T1 sequence (Q5U3Y7 1-176): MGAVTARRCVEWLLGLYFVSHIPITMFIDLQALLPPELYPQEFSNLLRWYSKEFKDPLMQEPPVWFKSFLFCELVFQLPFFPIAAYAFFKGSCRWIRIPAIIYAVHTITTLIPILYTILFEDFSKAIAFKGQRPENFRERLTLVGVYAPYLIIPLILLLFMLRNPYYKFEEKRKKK
Procedure: In brief the σ2-Receptorpreparation was prepared from rat liver. The livers were homogenized in 5 to 6 times of volume sucrose solution (0.32M) and homogenized. The homogenate was centrifuged at 2900 rpm, 4° C., 10 min). the supernatant was centrifuged again (31000×g, 4° C., 20 min). The pellet was resuspended in TRIS-buffer, incubated for 30 min at room temperature while stirring and centrifuged f (31000×g, 4° C., 20 min). The pellet was resuspended in cold TRIS-buffer pH 8 and homogenized. Then the protein content was measured (approx. 2 mg/mL) and the homogenate frozen at −80° C. for later use.
The radioligand used was [^3H]-Ditolylguanidin in TRIS-buffer pH 8. The σ1-receptor binding sites were masked through (+)-Pentazocin-solution in TRIS-Puffer pH 8.
In a volume of 200 μL 50 μL compound solution of varying concentration, 50 μL (+)-Pentazocin-solution (2 μM; resulting in 500 nM in the assay), 50 μL radioligand-solution (12 nM; resulting in 3 nM in the assay) and finally 50 μL of receptor preparation (approx. 2 mg/mL) were given into a well of a microplate equipped with a filter. The plate was closed and stirred for 2 h at room temperature and 500 rpm. Following that the solvents were removed by a harvester through the filter. After rinsing with H2O the filter was measured in a scintillation counter ([^3H]-protocol).

σ1-receptor [1] = target: T2, σ1-receptor (Cavia porcellus, UniProt Q60492); test: Sigma-1 (Version A) radioligand binding, [3H](+)-pentazocine, guinea pig brain membranes
Procedure: Brain membrane preparation and binding assays for the σ1-receptor were performed as described (DeHaven-Hudkins et al., 1992) with some modifications. In brief, guinea pig brains were homogenized in 10 vols. […] The homogenate was centrifuged at 1000 g for 10 min at 4° C. and the supernatants collected and centrifuged again at 48000 g for 15 min at 4° C.
Each assay tube contained 10 μL of [^3H](+)-pentazocine (final concentration of 0.5 nM), 900 μL of the tissue suspension to a final assay volume of 1 mL and a final tissue concentration of approximately 30 mg tissue net weight/mL. […] All tubes were incubated at 37° C. for 150 min before termination of the reaction by rapid filtration over Schleicher & Schuell GF 3362 glass fibre filters [previously soaked in a solution of 0.5% polyethylenimine for at least 1 h]. […] Following addition of scintillation cocktail, the samples were allowed to equilibrate overnight. The amount of bound radioactivity was determined by liquid scintillation spectrometry using a Wallac Winspectral 1414 liquid scintillation counter.

σ1-receptor [2] = target: T2, σ1-receptor; test: Sigma 1 (Version B) radioligand binding, [3H]-(+)-pentazocine, guinea pig brain preparation; parameters: the σ1-receptor preparation was prepared from guinea pig brain; from tissue; host or cells: guinea pig brain membrane homogenate
Procedure: In brief the σ1-receptor preparation was prepared from guinea pig brain. The brains were homogenized in 5 to 6 times of volume sucrose solution (0.32M) and homogenized. The homogenate was centrifuged at 2900 rpm, 4° C., 10 min). the supernatant was centrifuged again (23500×g, 4° C., 20 min). The pellet was resuspended in Tris-buffer, incubated for 30 min at room temperature and centrifuged f (23500×g, 4° C., 20 min). The pellet was resuspended in cold TRIS-buffer and homogenized. Then the protein content was measured (approx. 1.5 mg/mL) and the homogenate frozen at −80° C. for later use.
The radioligand used was […]-(+)-Pentazocin in TRIS-buffer. In a volume of 200 μL 50 μL TRIS-buffer, 50 μL compound solution of varying concentration, 50 μL radioligand-solution (8 nM; resulting in 2 nM in the assay) and finally 50 μL of receptor preparation (approx. 1.5 mg/mL) were given into a well of a microplate equipped with a filter. The plate was closed and stirred for 2.5 h at 37° C. and 500 rpm. Following that the solvents were removed by a harvester through the filter. After rinsing with H2O the filter was measured in a scintillation counter ([^3H]-protocol).

T2 sequence (Q60492 whole entry): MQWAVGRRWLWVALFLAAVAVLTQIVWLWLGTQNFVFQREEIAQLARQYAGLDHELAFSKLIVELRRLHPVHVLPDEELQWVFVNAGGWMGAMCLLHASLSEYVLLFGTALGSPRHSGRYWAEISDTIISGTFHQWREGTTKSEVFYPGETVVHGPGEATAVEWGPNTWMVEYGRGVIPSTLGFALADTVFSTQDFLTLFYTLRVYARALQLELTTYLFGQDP

Compound	inhibition at 1 µM (σ2-receptor; compound at 1 μM) [%]	Ki (σ1-receptor [1]) [nM]	Ki (σ1-receptor [2]) [nM]	Ki (σ2-receptor) [nM]
COC1Cc2c(cnn2-c2ccccc2)C2(CCN(CC=C(C)C)CC2)O1 (stereo not drawn) [Example 13, 6′-Methoxy-1-(3-methylbut-2-en-1-yl)-1′-phenyl-6′,7′-dihydro-1′H-spiro[piperidin-4,4′ pyrano[4,3-c]pyrazole]]	3	7.3	1.64	
COC1Cc2c(cnn2-c2ccccc2)C2(CCN(CC3CCCCC3)CC2)O1 (stereo not drawn) [Example 15, 1-(Cyclohexan-1-ylmethyl)-6′-methoxy-1′-phenyl-6′,7′-dihydro-1′H-spiro[piperidin-4,4′-pyrano[4,3-c]pyrazole]]		7.9	0.55	109
CCCCCCCCN1CCC2(CC1)OC(OC)Cc1c2cnn1-c1ccccc1 (stereo not drawn) [Example 14, 6′-Methoxy-1-octyl-1′-phenyl-6′,7′-dihydro-1′H-spiro[piperidin-4,4′-pyrano[4,3-c]pyrazole]]		41	2.86	209
COC1Cc2c(cnn2-c2ccccc2)C2(CCN(Cc3ccc(F)cc3)CC2)O1 (stereo not drawn) [Example 21, 1-(4-Fluorbenzyl)-6′-methoxy-1′-phenyl-6′,7′-dihydro-1′H-spiro[piperidin-4,4′-pyrano[4,3-c]pyrazole]]		7.7	0.94	687
COC1Cc2c(cnn2-c2ccccc2)C2(CCN(CCCCc3ccccc3)CC2)O1 (stereo not drawn) [Example 18, 6′-Methoxy-1′-phenyl-1-(4-phenylbutyl)-6′,7′-dihydro-1′H-spiro[piperidin-4,4′-pyrano[4,3-c]pyrazole]]		15.7	3.22	428
COC1Cc2c(cnn2-c2ccccc2)C2(CCN(Cc3ccco3)CC2)O1 (stereo not drawn) [Example 19, 1-(Furan-2-ylmethyl)-6′-methoxy-1′-phenyl-6′,7′-dihydro-1′H-spiro[piperidin-4,4′-pyrano[4,3-c]pyrazole]]		3.8	2.21	5220
COC1Cc2c(cnn2-c2ccccc2)C2(CCN(CCC(C)C)CC2)O1 (stereo not drawn) [Example 12, 1-Isopentyl-6′-methoxy-1′-phenyl-6′,7′-dihydro-1′H-spiro[piperidin-4,4′-pyrano[4,3-c]pyrazole]]		2.5	0.97	316
